Data set [1] concerns MV-4-11, NCI-H929 and OPM-2 xenografts. The data set is described as follows: In vivo xenograft studies (subcutaneous tumor models). As to conditions: tumor-bearing mice, as compared to AMG-176. How it is done:
Female SCID mice at 4-6 weeks old were purchased from Shanghai Laboratory Animal Center (SLAC) and 1×10^7 MV-4-11 cells per mouse in 0.2 ml of PBS with 30% Matrigel were inoculated subcutaneously to the right flank of mice. Volumes of the tumor were estimated as V=LW^2/2, where L and W stand for tumor length and width. Mice with tumor at 50-150 mm^3 were randomized into treatment groups (5 mice per group) and started treatment. Compounds were administered at selected doses by p.o. or i.v. administration. The individual relative tumor volume (RTV) is calculated as following: RTV=Vt/V0, where Vt is the volume on each day of measurement and V0 is the volume on the initial day of treatment. Therapeutic effect of compound is expressed with relative tumor proliferation rate (T/C). The calculation formula is: T/C=mean RTV of the treated group/mean RTV of the control group. Treatments producing >20% lethality and/or 20% net body weight loss were considered toxic. Similar procedures were used in the for the NCI-H929 and OPM-2 xenograft experiments. See FIGS. 1, 3, 5, 7, 9, 11, and 13. Body weight changes in tumor-bearing mice were also measured. See FIGS. 2, 4, 6, 8, 10, 12, and 14.

The target in data set [2] is T1, Mcl-1 protein (residues 171-323) (Homo sapiens, UniProt Q07820).
T1 construct: Tag-free Mcl-1 protein (residues 171-323) was used in the FP assay
The data set is described as follows: Inhibition of Mcl-1 by fluorescence polarization (FP) competitive binding assay with FAM-Bid tracer. As to conditions: 2 nM FAM-Bid, 20 nM Mcl-1, 30 min. An outline of the steps:
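Tag-free Mcl-1 (20 nM) with 2 nM FAM-Bid peptide in PBS, 0.01% BGG, 0.01% Triton X-100, 5% DMSO, 30 min at room temperature. FP read at Ex 485/Em 528 nm. IC50 from 10-point curves normalised to DMSO and no-protein controls.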
In general terms: In fluorescence polarisation assays a small probe gives low polarisation when free and higher when bound to something large.

For data set [3], the system named is OPM-2 cells. The data set is described as follows: Cell viability assay (OPM-2 cells), CCK-8. As to conditions: Homo sapiens, OPM-2, 24 h, 5% FBS. The format is cell-based. In a few lines: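 OPM-2 myeloma cells (20000/well) exposed to serially diluted compound for 24 h at 37 °C, 5% CO2, then incubated 4 h with CCK-8 and read at 450 nm. Readings normalized to vehicle; IC50 from nonlinear regression.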

Data set [4] in a line: Pharmacokinetic studies in mice (IV and PO). As to conditions: for MRT last: read-out: MRT0-last. The format is in vivo. How it is done:
Administration: Mice in the IV group was dosed at 2 mg/kg (20% PEG 400+10% Cremophor EL+70% PBS 7.4) via tail vein injection (N=9). Mice in the PO group was dosed at 10 mg/kg (20% PEG 400+10% Cremophor EL+70% PBS 7.4) via oral gavage (N=9). All the mice were fasted overnight before dosing and had free access to food 4 hr post dosing.
Sampling: The animal was restrained manually at the designated time points (0.083, 0.25, 0.5, 1, 2, 4, 6, 8 and 24 hr), approximately 110 μL of blood sample was collected via retro-orbital puncture or cardiac puncture for terminal bleeding under the anesthesia with Isoflurane inhalation into K2EDTA tubes. The blood samples were maintained in wet ice first and centrifuged to obtain plasma (2000 g, 4° C., 5 min) within 15 minutes post sampling. All the plasma samples were stored at approximately −70° C. until analysis.

The subject of data set [5] is NCI-H929 cells. Description: Cell viability assay (NCI-H929 cells), CCK-8. The format is cell-based. As to conditions: Homo sapiens, NCI-H929, 24 h, 5% FBS. In a few lines:
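NCI-H929 cells from ATCC were seeded at 20000 cells/well in 95 μL of culture medium in 96-well plates and grown for 4 hrs. Compounds, serially diluted in DMSO and further diluted in medium, were added as 5 μL, and cells were incubated for 24 hrs at 37° C. with 5% CO2. Viability was measured with CCK-8.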

pIC50: −log10 of the molar value. Like-named read-outs stand apart in the source and are kept apart here.

From patent publication US11498928B2, “Macrocyclic spiroethers as Mcl-1 inhibitors” (ASCENTAGE PHARMA (SUZHOU) CO., LTD., priority 2019, dated 2022) come the findings set out here.

T1 sequence (Q07820 171-323): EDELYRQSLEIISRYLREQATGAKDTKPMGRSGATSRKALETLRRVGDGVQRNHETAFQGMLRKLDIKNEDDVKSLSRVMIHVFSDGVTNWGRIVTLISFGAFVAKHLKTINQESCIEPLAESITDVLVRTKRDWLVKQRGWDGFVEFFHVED

Broadly, the pIC50 is the negative decadic logarithm of the IC50, by convention in mol/L. The term AUC(0-inf) denotes the area under the concentration-time curve extrapolated to infinity. Read a low AUC(0-inf) as less exposure. Broadly, the AUC(0-t) is exposure summed from dosing to a finite time, without extrapolation to infinity. The low end stands for less exposure, the high end for more exposure. As a reminder, the half-life is the time in which the quantity being followed falls by half. As a reminder, the Tmax is the time at which the peak concentration occurs. `CO[C@H]1C2=C[C@@H](C2)[C@H](C)[C@@H](C)S(=O)(=O)NC(=O)c2ccc3c(c2)N(C[C@@H]2CC[C@H]21)C[C@@]1(CCCc2c1ccc(Cl)c2F)CO3` (single isomer, unassigned) [Cpd. No. 17 (isomer 1)]: the “body weight change (toxicity to the animals)” value in data set [1] is on record as “less body weight change”. The tumor growth inhibition entry in data set [1] (p.o. or i.v.) is “surprisingly better tumor growth inhibition”. For the same compound, in data set [2], the pIC50 is 8.09. In addition, the pIC50 in data set [3] was 7.21. Further, in data set [4] (PO 10 mg/kg vs IV 2 mg/kg), the F was determined as 92.9%. In data set [4] (mouse, plasma, IV 2 mg/kg), this compound gave an AUC(0-inf) of 15200 ng·h/mL, an AUC(0-t) of 13900 ng·h/mL, a clearance of 2.18 mL/min/kg and a half-life of 7 h. Further, in data set [4] (mouse, plasma, IV 2 mg/kg), the MRT last stood at 6.7 h. The Cmax in data set [4] (mouse, plasma, IV 2 mg/kg, read-out: C0/Cmax (C0)) was found to be 997 ng/mL. Moreover, the Vd in data set [4] (mouse, plasma, IV 2 mg/kg, read-out: Vss) was determined as 1.2 L/kg. In data set [4] (mouse, plasma, PO 10 mg/kg), the AUC(0-inf) came out at 70700 ng·h/mL, the AUC(0-t) turned out to be 56000 ng·h/mL, the Tmax is 4 h and the half-life was 10.6 h. Also, the MRT last in data set [4] (mouse, plasma, PO 10 mg/kg) came out at 8.3 h. Further, in data set [4] (mouse, plasma, PO 10 mg/kg, read-out: C0/Cmax (Cmax)), the Cmax came out at 4350 ng/mL. For the same compound, in data set [4] (mouse, plasma, PO 10 mg/kg, read-out: Vz/F), the Vd/F came to 2.2 L/kg. Also, the pIC50 in data set [5] is 7.80.
